Like-named read-outs stand apart in the source and are kept apart here. Starred links: 1 amine or outer side, 2 acyl side, 3 side chain; linkers in the order of their positions; H or OH if unused. Non-standard residues stand in square brackets, D forms with d. Residues, ends and D or L forms follow the SMILES beside them. Groups on a side chain read outwards from the residue. *: point of attachment. C20 diacid = O=C(O)CCCCCCCCCCCCCCCCCCC(=O)*; C18 diacid = O=C(O)CCCCCCCCCCCCCCCCC(=O)*; γGlu = O=C(O)[C@H](CCC(=O)[*:2])N[*:1]; AEEA = NCCOCCOCC(=O)O; Aib = CC(C)(N)C(=O)O
Legend:
Assay type in all cases: cell-based
[1] = test system: rat CRF2R α receptor; assay: cAMP agonism at rat CRF2R α receptor in A7R5 rat aortic smooth muscle cells (Example 8); conditions: cAMP HTRF, A7R5 rat aortic smooth muscle cell line, 0% HSA
Procedure, shortened: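 Thawed cryopreserved A7R5 cells in HBSS/20 mM HEPES (0 or 0.1% HSA) with 2 mM IBMX, 2000 cells/well, were exposed to compound for 30 min at room temperature. cAMP was read by HTRF (665/620 nm ratio) after 1 h with lysis reagents. Activity was normalised to 1000 nM urocortin 2 as 100%, and EC50 was taken as the concentration giving 50% of maximal activation.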

[2] = target: T1, human CRF2α receptor (Homo sapiens, UniProt Q13324); assay: cAMP agonism at human CRF2 α receptor in TeloHEAC cells (Example 7); conditions: cAMP HTRF, TeloHEAC cells stably expressing human CRF2 α
T1 construct: expressed in transfected cells; host or cells: TeloHEAC
T1 sequence (Q13324 1-411): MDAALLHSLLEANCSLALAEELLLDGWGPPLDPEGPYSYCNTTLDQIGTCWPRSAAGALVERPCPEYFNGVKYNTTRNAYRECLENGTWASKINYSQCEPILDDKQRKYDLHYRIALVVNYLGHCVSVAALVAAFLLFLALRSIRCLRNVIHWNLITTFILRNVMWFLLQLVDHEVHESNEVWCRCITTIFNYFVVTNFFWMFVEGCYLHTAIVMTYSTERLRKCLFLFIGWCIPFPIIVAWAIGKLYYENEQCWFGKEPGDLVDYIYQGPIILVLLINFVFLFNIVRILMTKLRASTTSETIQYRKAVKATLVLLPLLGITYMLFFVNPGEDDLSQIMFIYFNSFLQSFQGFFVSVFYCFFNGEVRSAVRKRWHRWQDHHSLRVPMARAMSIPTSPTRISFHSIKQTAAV
Procedure, shortened: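 Cryopreserved cells are thawed, washed and resuspended in IBMX-containing (2 mM) HEPES-buffered HBSS with or without 0.1% HSA. Compound incubation runs 30 min at room temperature with 2000 cells per well, then cAMP is measured by time-resolved FRET. Potency is expressed as EC50, efficacy relative to urocortin 2 at 1000 nM.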

[3] = target: T2, CRF1R receptor (Homo sapiens, UniProt P34998); assay: cAMP activity at anti-target CRF1R, CRF1R-overexpression CHO cell line (Example 9); conditions: CRF1R-overexpression CHO cell line; for EC50: 0% HSA; for Emax: read-out: Emax (%)
T2 construct: host or cells: CHO-K1 clone 2
T2 sequence (P34998 24-415): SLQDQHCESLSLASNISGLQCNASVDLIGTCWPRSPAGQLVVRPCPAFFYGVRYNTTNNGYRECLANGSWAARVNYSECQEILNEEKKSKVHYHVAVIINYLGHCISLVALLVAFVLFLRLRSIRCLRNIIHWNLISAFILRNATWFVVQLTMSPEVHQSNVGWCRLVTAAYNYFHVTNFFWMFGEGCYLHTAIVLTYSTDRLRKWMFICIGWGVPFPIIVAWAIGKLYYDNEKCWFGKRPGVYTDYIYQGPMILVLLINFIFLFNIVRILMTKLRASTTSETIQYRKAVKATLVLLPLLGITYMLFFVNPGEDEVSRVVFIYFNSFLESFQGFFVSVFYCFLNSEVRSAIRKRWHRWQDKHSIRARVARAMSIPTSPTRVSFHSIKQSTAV
Procedure, shortened: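 cAMP accumulation was read by HTRF after 30 min at room temperature of compound treatment. Cells were cryopreserved CHO cells overexpressing CRF1R, plated at 2000/well in IBMX (2 mM)-containing HBSS/HEPES buffer with 0 or 0.1% HSA. Activity was normalized to 1000 nM UCN2 as 100%.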

[4] = 0% HSA, read-out: EC50 [nM], 0% HSA
[5] = 0.1% HSA, read-out: EC50 [nM], 0.1% HSA

CC[C@H](C)[C@H](N)C(=O)N[C@H](C(=O)N[C@@H](CC(C)C)C(=O)N[C@@H](CO)C(=O)N[C@@H](CC(C)C)C(=O)N[C@@H](CC(=O)O)C(=O)N[C@H](C(=O)N1CCC[C@H]1C(=O)N[C@H](C(=O)N[C@@H](CCCCN)C(=O)N[C@@H](CC(C)C)C(=O)N[C@@H](CCCCNC(=O)COCCOCCNC(=O)COCCOCCNC(=O)CC[C@H](NC(=O)CCCCCCCCCCCCCCCCCCC(=O)O)C(=O)O)C(=O)N[C@@H](CCC(N)=O)C(=O)N[C@H](C(=O)N[C@@H](CC(C)C)C(=O)N[C@@H](CC(C)C)C(=O)N[C@@H](CCC(=O)O)C(=O)N[C@@H](CCC(N)=O)C(=O)N[C@@H](CCC(=O)O)C(=O)N[C@@H](CCCNC(=N)N)C(=O)N[C@@H](CCC(N)=O)C(=O)N[C@@H](CCCCN)C(=O)N[C@@H](CCCCN)C(=O)N[C@@H](CCC(N)=O)C(=O)N[C@@H](CCCNC(=N)N)C(=O)N[C@@H](CCC(=O)O)C(=O)N[C@@H](CCC(N)=O)C(=O)N[C@@H](C)C(=O)N[C@@H](CCC(=O)O)C(=O)N[C@H](C(=O)N[C@@H](CC(N)=O)C(=O)NC(C)(C)C(=O)N[C@@H](CCC(N)=O)C(=O)N[C@H](C(=O)N[C@@H](CC(C)C)C(=O)N[C@@H](C)C(=O)N[C@@H](CCC(N)=O)C(=O)N[C@H](C(N)=O)C(C)C)[C@@H](C)CC)[C@@H](C)O)[C@@H](C)CC)[C@@H](C)O)C(C)C)C(C)C [compound 80] (H-IVLSLDVPTKLK([AEEA-AEEA-γGlu-C20 diacid])QILLEQERQKKQREQAETN[Aib]QILAQV-NH2)
EC50 [1]: 5.2 nM
EC50 [2, 4]: 0.9 nM
EC50 [2, 5]: 92.5 nM
EC50 [3]: > 1000 nM
Emax [3]: 12.7%

CC[C@H](C)[C@H](N)C(=O)N[C@H](C(=O)N[C@@H](CC(C)C)C(=O)N[C@@H](CO)C(=O)N[C@@H](CC(C)C)C(=O)N[C@@H](CC(=O)O)C(=O)N[C@H](C(=O)N1CCC[C@H]1C(=O)N[C@H](C(=O)N[C@@H](CCCCN)C(=O)N[C@@H](CC(C)C)C(=O)N[C@@H](CCCCNC(=O)COCCOCCNC(=O)COCCOCCNC(=O)CC[C@H](NC(=O)CCCCCCCCCCCCCCCCC(=O)O)C(=O)O)C(=O)N[C@@H](CCC(N)=O)C(=O)N[C@H](C(=O)N[C@@H](CC(C)C)C(=O)N[C@@H](CC(C)C)C(=O)N[C@@H](CCCCN)C(=O)N[C@@H](CCC(N)=O)C(=O)N[C@@H](CCC(=O)O)C(=O)N[C@@H](CCCNC(=N)N)C(=O)N[C@@H](CCC(N)=O)C(=O)N[C@@H](CCCCN)C(=O)N[C@@H](CCCCN)C(=O)N[C@@H](CCC(N)=O)C(=O)N[C@@H](CCCNC(=N)N)C(=O)N[C@@H](CCC(=O)O)C(=O)N[C@@H](CCC(N)=O)C(=O)N[C@@H](C)C(=O)N[C@@H](CCC(=O)O)C(=O)N[C@H](C(=O)N[C@@H](CC(N)=O)C(=O)N[C@@H](CCCCN)C(=O)N[C@@H](CCC(N)=O)C(=O)N[C@H](C(=O)N[C@@H](CC(C)C)C(=O)N[C@@H](C)C(=O)N[C@@H](CCC(N)=O)C(=O)N[C@H](C(N)=O)C(C)C)[C@@H](C)CC)[C@@H](C)O)[C@@H](C)CC)[C@@H](C)CC)C(C)C)C(C)C [compound 85] (H-IVLSLDVPIKLK([AEEA-AEEA-γGlu-C18 diacid])QILLKQERQKKQREQAETNKQILAQV-NH2; N-terminus assumed)
EC50 [1]: 0.73 nM
EC50 [2, 4]: 0.1 nM
EC50 [2, 5]: 3.58 nM
EC50 [3]: > 1000 nM
Emax [3]: 0.14%

CC[C@H](C)[C@H](N)C(=O)N[C@H](C(=O)N[C@@H](CC(C)C)C(=O)N[C@@H](CO)C(=O)N[C@@H](CC(C)C)C(=O)N[C@@H](CC(=O)O)C(=O)N[C@H](C(=O)N1CCC[C@H]1C(=O)N[C@H](C(=O)N[C@@H](CCCCN)C(=O)N[C@@H](CC(C)C)C(=O)N[C@@H](CCCCNC(=O)COCCOCCNC(=O)COCCOCCNC(=O)CC[C@H](NC(=O)CCCCCCCCCCCCCCCCC(=O)O)C(=O)O)C(=O)N[C@@H](CCC(N)=O)C(=O)N[C@H](C(=O)N[C@@H](CC(C)C)C(=O)N[C@@H](CC(C)C)C(=O)N[C@@H](CCCCN)C(=O)N[C@@H](CCC(N)=O)C(=O)N[C@@H](CCC(=O)O)C(=O)N[C@@H](CCCNC(=N)N)C(=O)N[C@@H](CCC(N)=O)C(=O)N[C@@H](CCCCN)C(=O)N[C@@H](CCCCN)C(=O)N[C@@H](CCC(N)=O)C(=O)N[C@@H](CCCNC(=N)N)C(=O)N[C@@H](CCC(=O)O)C(=O)N[C@@H](CCC(N)=O)C(=O)N[C@@H](C)C(=O)N[C@@H](CCCCN)C(=O)N[C@H](C(=O)N[C@@H](CC(N)=O)C(=O)N[C@@H](CCCCN)C(=O)N[C@@H](CCC(N)=O)C(=O)N[C@H](C(=O)N[C@@H](CC(C)C)C(=O)N[C@@H](C)C(=O)N[C@@H](CCC(N)=O)C(=O)N[C@H](C(N)=O)C(C)C)[C@@H](C)CC)[C@@H](C)O)[C@@H](C)CC)[C@@H](C)CC)C(C)C)C(C)C [compound 86] (H-IVLSLDVPIKLK([AEEA-AEEA-γGlu-C18 diacid])QILLKQERQKKQREQAKTNKQILAQV-NH2; N-terminus assumed)
EC50 [1]: 0.69 nM
EC50 [2, 4]: 0.11 nM
EC50 [2, 5]: 5.7 nM
EC50 [3]: > 1000 nM
Emax [3]: 15.9%

CC[C@H](C)[C@H](N)C(=O)N[C@H](C(=O)N[C@@H](CC(C)C)C(=O)N[C@@H](CO)C(=O)N[C@@H](CC(C)C)C(=O)N[C@@H](CC(=O)O)C(=O)N[C@H](C(=O)N1CCC[C@H]1C(=O)N[C@H](C(=O)N[C@@H](CCCCN)C(=O)N[C@@H](CC(C)C)C(=O)N[C@@H](CCCCNC(=O)COCCOCCNC(=O)COCCOCCNC(=O)CC[C@H](NC(=O)CCCCCCCCCCCCCCCCC(=O)O)C(=O)O)C(=O)N[C@@H](CCC(N)=O)C(=O)N[C@H](C(=O)N[C@@H](CC(C)C)C(=O)N[C@@H](CC(C)C)C(=O)N[C@@H](CCCCN)C(=O)N[C@@H](CCC(N)=O)C(=O)N[C@@H](CCC(=O)O)C(=O)N[C@@H](CCCNC(=N)N)C(=O)N[C@@H](CCC(N)=O)C(=O)N[C@@H](CCCCN)C(=O)N[C@@H](CCCCN)C(=O)N[C@@H](CCC(N)=O)C(=O)N[C@@H](CCCNC(=N)N)C(=O)N[C@@H](CCC(=O)O)C(=O)N[C@@H](CCCCN)C(=O)N[C@@H](C)C(=O)N[C@@H](CCCCN)C(=O)N[C@H](C(=O)N[C@@H](CC(N)=O)C(=O)N[C@@H](CCCCN)C(=O)N[C@@H](CCC(N)=O)C(=O)N[C@H](C(=O)N[C@@H](CC(C)C)C(=O)N[C@@H](C)C(=O)N[C@@H](CCC(N)=O)C(=O)N[C@H](C(N)=O)C(C)C)[C@@H](C)CC)[C@@H](C)O)[C@@H](C)CC)[C@@H](C)CC)C(C)C)C(C)C [compound 87] (H-IVLSLDVPIKLK([AEEA-AEEA-γGlu-C18 diacid])QILLKQERQKKQREKAKTNKQILAQV-NH2; N-terminus assumed)
EC50 [1]: 1.49 nM
EC50 [2, 4]: 0.23 nM
EC50 [2, 5]: 16.2 nM
EC50 [3]: > 1000 nM
Emax [3]: -0.2%

CC[C@H](C)[C@H](N)C(=O)N[C@H](C(=O)N[C@@H](CC(C)C)C(=O)N[C@@H](CO)C(=O)N[C@@H](CC(C)C)C(=O)N[C@@H](CC(=O)O)C(=O)N[C@H](C(=O)N1CCC[C@H]1C(=O)N[C@H](C(=O)N[C@@H](CCCCN)C(=O)N[C@@H](CC(C)C)C(=O)N[C@@H](CCCCNC(=O)COCCOCCNC(=O)COCCOCCNC(=O)CC[C@H](NC(=O)CCCCCCCCCCCCCCCCC(=O)O)C(=O)O)C(=O)N[C@@H](CCCCN)C(=O)N[C@H](C(=O)N[C@@H](CC(C)C)C(=O)N[C@@H](CC(C)C)C(=O)N[C@@H](CCCCN)C(=O)N[C@@H](CCC(N)=O)C(=O)N[C@@H](CCC(=O)O)C(=O)N[C@@H](CCCNC(=N)N)C(=O)N[C@@H](CCC(N)=O)C(=O)N[C@@H](CCCCN)C(=O)N[C@@H](CCCCN)C(=O)NC(C)(C)C(=O)N[C@@H](CCCNC(=N)N)C(=O)N[C@@H](CCC(=O)O)C(=O)N[C@@H](CCC(N)=O)C(=O)N[C@@H](C)C(=O)N[C@@H](CCC(=O)O)C(=O)N[C@H](C(=O)N[C@@H](CC(N)=O)C(=O)NC(C)(C)C(=O)N[C@@H](CCC(N)=O)C(=O)N[C@H](C(=O)N[C@@H](CC(C)C)C(=O)N[C@@H](C)C(=O)N[C@@H](CCC(N)=O)C(=O)N[C@H](C(N)=O)C(C)C)[C@@H](C)CC)[C@@H](C)O)[C@@H](C)CC)[C@@H](C)CC)C(C)C)C(C)C [compound 100] (H-IVLSLDVPIKLK([AEEA-AEEA-γGlu-C18 diacid])KILLKQERQKK[Aib]REQAETN[Aib]QILAQV-NH2; N-terminus assumed)
EC50 [1]: 7.52 nM
EC50 [2, 4]: 0.51 nM
EC50 [2, 5]: 20.5 nM
EC50 [3]: > 1000 nM
Emax [3]: 5.06%
